The source made the active and inactive calls.
Assays:
[1] = HEK-293T viability loss after treatment – luminescence, T-cell screen hits, cytotoxicity control for TCR NF-kB inhibitor project, dose response (AID 489026); format: functional, cell-based;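 note: cells exposed to compound about 14 hours before the viability readout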
[2] = luciferase reporter signal suppression in cells – H4 neuroglioma cells, luminescence, dose response (AID 1990); format: functional, cell-based
[3] = Luminescence Cell-Based Dose Response HTS to Identify Inhibitors of 5'UTR Stem-Loop Driven Prion Protein mRNA Translation in H4 Neuroglioblastoma Cells. [Related pubchem assays: 1827 (Project Summary), 1813 (Primary HTS)]; format: functional
[4] = alpha-synuclein stem-loop luciferase translation blockers – H4 neuroglioma cells, luminescence, confirmation (AID 1988); format: functional, cell-based
[5] = target: T1, Heat shock factor protein 1 (Mus musculus, UniProt P38532); assay: enhancement of HSF1-driven luciferase signal – cell-based, NIH3T3, luminescence, dose retest, confirmation (AID 435004); format: functional;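 note: stress induced by proteasome inhibitor MG132 added 30 min after compound; luciferase reporter driven by HSF1 response element in NIH3T3 cells; actives raise luminescence as potentiators of the MG132 stress response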
T1 sequence (P38532 whole entry): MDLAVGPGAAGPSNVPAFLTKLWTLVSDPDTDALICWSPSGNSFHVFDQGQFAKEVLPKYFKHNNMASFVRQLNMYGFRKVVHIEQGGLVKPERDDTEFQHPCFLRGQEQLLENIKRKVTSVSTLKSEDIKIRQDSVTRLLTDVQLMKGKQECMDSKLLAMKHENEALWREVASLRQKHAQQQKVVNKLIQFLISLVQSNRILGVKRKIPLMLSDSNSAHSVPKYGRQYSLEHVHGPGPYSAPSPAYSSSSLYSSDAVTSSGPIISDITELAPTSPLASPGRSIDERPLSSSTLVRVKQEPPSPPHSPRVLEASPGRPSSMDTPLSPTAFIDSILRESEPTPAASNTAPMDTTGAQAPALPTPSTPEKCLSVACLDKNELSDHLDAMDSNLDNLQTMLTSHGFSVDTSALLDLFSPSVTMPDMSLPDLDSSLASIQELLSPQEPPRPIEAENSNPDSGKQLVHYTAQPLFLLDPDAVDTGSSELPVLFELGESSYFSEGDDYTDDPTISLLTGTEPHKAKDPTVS

INS1 = assay: INS-1E survival protection against cytokine death – cell-based, luminescence, retest, dose response (AID 449756); format: functional; conditions: Rattus norvegicus;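 note: cell death triggered by IL-1 beta plus TNF-alpha plus IFN-gamma mixture; protective hits raise ATP signal compared with cytokine alone wells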
HEK293 [6] = assay: HEK293T cell viability loss, resazurin readout – resazurin fluorescence, cytotoxicity control for NF-kB activator project, SAR follow-up (AID 493251); format: functional, cell-based; conditions: Homo sapiens
Jurkat = assay: SAR Analysis of small molecule inhibitors of T-cell specific antigen receptor-induced NF-kB activation in a Jurkat cell line using a luminescence assay - Set 2. [Related pubchem assays (depositor defined):AID435003, AID435012, AID465]; format: functional, cell-based; conditions: Homo sapiens
HEK293 [7] = assay: SAR Analysis of small molecule inhibitors of T-cell specific antigen receptor-induced NF-kB activation in a HEK-293T cell line using a luminescence assay - Set 2. [Related pubchem assays (depositor defined):AID435003, AID435012, AID489026]; format: functional, cell-based; conditions: Homo sapiens
Escherichia coli = assay: microbe, parasite or virus in culture
HEK293 [8] = assay: inhibition of NOD1-driven NF-kB reporter – cell-based, luminescence, uHTS, primary screen (AID 1578); format: functional; conditions: Homo sapiens
HEK293 [9] = assay: cells; format: functional, cell-based; conditions: Homo sapiens
HEK293 [10] = assay: cells; format: functional, cell-based; conditions: Homo sapiens; remark: listed apart in the source
HEK293 [11] = assay: NOD2 signaling inhibitors in MDP-stimulated cells, cell-based, uHTS, luminescence (AID 2001); format: functional; conditions: Homo sapiens
[12] = Trypanosoma cruzi growth suppression in host cells – NIH3T3 host cells, beta-gal luminescence, confirmation (AID 2044); format: functional, cell-based;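 note: intracellular parasites grown in NIH/3T3 mouse fibroblasts as host cells; luminescent beta-galactosidase reporter signal from transgenic T. cruzi replicating inside host cells; inhibitors lower the luminescence signal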
[13] = NIH3T3 cell viability loss – ATP luminescence, mouse fibroblasts, counter-screen, dose response (AID 2010); format: functional, cell-based;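 note: cells exposed to compound for about 90 hours before reading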
[14] = target: FAD-linked sulfhydryl oxidase ALR (Homo sapiens, UniProt P55789); assay: ALR-catalysed DTT oxidation blockers – biochemical, H2O2 detection, luminescence, cherry-pick, dose response (AID 493248)
[15] = target: DNA damage-inducible transcript 3 protein (Mus musculus, UniProt P35639); format: functional, Cricetulus griseus
X-box-binding protein 1 = target: T2, X-box-binding protein 1 (Homo sapiens, UniProt P17861); format: functional, Cricetulus griseus;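 note: confirmatory dose-response counter-screen serving a CHOP assay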
T2 sequence (P17861 whole entry): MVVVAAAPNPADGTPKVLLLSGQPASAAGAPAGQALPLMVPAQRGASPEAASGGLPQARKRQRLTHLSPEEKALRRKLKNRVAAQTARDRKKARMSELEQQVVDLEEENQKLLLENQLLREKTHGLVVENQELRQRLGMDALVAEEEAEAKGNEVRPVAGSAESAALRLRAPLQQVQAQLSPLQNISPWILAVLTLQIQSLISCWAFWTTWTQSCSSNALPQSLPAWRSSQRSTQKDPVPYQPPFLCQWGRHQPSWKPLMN

H9c2 = assay: cells; format: functional, cell-based; conditions: Rattus norvegicus, H9c2, Myocardium;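 note: confirmatory concentration-response retest of ultra-high-throughput screening hits for modulation of myocardial damage; cell death induced by hydrogen peroxide oxidative stress; compound pretreatment for 60 min then peroxide exposure for 2 h; potency is for protecting the cells against peroxide damage rather than for killing them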
Hexokinase = target: T3, Hexokinase (Trypanosoma brucei, UniProt Q38C41); assay: Confirmation assay for inhibitors of Trypanosoma brucei hexokinase 1-Analogue-first series. [Related pubchem assays (depositor defined):AID1430, AID1632, AID2516, AID2560, AID2579, AID2600, AID449725, AID492951]; format: functional
T3 sequence (Q38C41 whole entry): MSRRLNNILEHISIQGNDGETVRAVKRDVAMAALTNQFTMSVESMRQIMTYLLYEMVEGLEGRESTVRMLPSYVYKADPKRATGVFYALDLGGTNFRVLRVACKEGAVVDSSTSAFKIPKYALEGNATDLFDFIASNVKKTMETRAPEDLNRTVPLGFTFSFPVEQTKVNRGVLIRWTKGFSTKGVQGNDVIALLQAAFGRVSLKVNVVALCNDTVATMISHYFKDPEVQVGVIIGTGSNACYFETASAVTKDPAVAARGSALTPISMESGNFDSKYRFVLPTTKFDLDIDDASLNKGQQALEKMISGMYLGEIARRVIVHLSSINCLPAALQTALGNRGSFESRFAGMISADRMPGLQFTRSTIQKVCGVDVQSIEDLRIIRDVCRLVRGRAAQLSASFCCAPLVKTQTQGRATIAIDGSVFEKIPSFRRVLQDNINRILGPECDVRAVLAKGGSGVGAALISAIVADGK

[16] = target: T4, Voltage-gated N-type calcium channel alpha-1B subunit/Amyloid beta A4 precursor protein-binding family A member 1 (Homo sapiens, UniProt Q00975+Q02410); format: protein assay
[17] = target: T1, Heat shock factor protein 1; assay: decrease of HSF1-responsive luciferase luminescence – cell-based, NIH3T3, dose retest, confirmation (AID 2382); format: functional;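 note: NIH3T3 fibroblasts with HSF1-driven luciferase reporter stressed by proteasome inhibitor MG132; luminescence from HSF1-driven luciferase expression after 8 hours of MG132 stress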
[18] = target: Luciferin 4-monooxygenase (Photinus pyralis, UniProt P08659); assay: inhibition of purified Photinus pyralis luciferase – biochemical, luminescence, dose response (AID 1891)
[19] = Luminescence Cell-Based Dose Confirmation HTS to Identify Inhibitors of Platelet Dense Granule Release. [Related pubchem assays: 1663 (Primary HTS), 1678 (Summary of Project)]; format: functional
[20] = target: T4, Voltage-gated N-type calcium channel alpha-1B subunit/Amyloid beta A4 precursor protein-binding family A member 1; format: protein assay; remark: listed apart in the source
Saccharomyces cerevisiae = assay: S. cerevisiae Caspase-1/ASC signal blockers IC50, NALP1 inhibitor project selectivity test (AID 488863); format: functional, organism-based
[21] = target: T5, NACHT, LRR and PYD domains-containing protein 1 (Homo sapiens, UniProt Q9C000); assay: NALP1 inhibitors in yeast, dose response, luminescent (AID 488860); format: functional
T5 sequence (Q9C000 whole entry): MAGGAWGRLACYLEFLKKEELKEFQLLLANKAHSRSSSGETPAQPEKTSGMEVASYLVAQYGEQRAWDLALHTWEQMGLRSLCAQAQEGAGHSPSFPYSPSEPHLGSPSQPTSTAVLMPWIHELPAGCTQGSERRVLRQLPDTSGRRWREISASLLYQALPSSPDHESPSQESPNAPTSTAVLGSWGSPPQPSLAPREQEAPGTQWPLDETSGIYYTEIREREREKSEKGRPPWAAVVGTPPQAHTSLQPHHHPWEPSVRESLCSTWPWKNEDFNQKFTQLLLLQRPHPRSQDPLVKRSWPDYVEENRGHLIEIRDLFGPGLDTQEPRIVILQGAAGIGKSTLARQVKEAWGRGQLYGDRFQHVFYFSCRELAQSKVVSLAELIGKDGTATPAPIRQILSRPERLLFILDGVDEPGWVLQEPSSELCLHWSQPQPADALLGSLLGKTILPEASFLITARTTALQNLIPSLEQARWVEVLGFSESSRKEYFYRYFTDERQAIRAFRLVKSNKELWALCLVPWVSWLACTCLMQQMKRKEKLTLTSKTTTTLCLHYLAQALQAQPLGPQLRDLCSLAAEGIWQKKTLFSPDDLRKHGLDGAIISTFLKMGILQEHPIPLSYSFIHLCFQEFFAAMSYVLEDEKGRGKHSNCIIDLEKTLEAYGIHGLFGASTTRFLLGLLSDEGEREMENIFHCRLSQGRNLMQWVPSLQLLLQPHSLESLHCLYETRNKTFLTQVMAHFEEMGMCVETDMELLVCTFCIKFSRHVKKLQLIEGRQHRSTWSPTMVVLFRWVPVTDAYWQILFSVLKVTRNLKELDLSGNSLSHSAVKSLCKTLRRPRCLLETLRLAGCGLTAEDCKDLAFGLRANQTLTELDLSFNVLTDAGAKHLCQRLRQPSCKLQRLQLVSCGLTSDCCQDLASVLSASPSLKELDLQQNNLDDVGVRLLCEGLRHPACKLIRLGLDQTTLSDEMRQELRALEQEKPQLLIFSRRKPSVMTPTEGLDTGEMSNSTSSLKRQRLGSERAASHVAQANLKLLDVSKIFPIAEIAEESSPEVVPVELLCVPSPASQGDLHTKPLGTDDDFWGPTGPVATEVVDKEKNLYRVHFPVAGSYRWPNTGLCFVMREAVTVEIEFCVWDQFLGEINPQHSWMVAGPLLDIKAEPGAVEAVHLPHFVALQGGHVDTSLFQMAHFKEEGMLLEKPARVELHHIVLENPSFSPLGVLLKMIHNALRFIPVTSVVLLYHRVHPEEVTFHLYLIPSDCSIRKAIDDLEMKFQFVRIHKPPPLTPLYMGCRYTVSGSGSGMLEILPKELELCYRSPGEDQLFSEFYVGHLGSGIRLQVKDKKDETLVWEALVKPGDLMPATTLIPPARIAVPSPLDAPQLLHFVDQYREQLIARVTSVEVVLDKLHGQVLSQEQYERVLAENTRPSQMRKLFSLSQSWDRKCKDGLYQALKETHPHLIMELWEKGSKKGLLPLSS

[22] = target: Heat shock protein HSP 90-alpha (Homo sapiens, UniProt P07900); format: functional, organism-based

DNA damage-inducible transcript 3 protein, sequence (P35639 whole entry): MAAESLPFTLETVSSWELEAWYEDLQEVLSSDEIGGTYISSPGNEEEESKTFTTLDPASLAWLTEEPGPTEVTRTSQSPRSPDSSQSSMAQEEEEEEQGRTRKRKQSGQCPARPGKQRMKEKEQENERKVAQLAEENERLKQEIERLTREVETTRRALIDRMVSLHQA
T4 sequence (Q00975 whole entry): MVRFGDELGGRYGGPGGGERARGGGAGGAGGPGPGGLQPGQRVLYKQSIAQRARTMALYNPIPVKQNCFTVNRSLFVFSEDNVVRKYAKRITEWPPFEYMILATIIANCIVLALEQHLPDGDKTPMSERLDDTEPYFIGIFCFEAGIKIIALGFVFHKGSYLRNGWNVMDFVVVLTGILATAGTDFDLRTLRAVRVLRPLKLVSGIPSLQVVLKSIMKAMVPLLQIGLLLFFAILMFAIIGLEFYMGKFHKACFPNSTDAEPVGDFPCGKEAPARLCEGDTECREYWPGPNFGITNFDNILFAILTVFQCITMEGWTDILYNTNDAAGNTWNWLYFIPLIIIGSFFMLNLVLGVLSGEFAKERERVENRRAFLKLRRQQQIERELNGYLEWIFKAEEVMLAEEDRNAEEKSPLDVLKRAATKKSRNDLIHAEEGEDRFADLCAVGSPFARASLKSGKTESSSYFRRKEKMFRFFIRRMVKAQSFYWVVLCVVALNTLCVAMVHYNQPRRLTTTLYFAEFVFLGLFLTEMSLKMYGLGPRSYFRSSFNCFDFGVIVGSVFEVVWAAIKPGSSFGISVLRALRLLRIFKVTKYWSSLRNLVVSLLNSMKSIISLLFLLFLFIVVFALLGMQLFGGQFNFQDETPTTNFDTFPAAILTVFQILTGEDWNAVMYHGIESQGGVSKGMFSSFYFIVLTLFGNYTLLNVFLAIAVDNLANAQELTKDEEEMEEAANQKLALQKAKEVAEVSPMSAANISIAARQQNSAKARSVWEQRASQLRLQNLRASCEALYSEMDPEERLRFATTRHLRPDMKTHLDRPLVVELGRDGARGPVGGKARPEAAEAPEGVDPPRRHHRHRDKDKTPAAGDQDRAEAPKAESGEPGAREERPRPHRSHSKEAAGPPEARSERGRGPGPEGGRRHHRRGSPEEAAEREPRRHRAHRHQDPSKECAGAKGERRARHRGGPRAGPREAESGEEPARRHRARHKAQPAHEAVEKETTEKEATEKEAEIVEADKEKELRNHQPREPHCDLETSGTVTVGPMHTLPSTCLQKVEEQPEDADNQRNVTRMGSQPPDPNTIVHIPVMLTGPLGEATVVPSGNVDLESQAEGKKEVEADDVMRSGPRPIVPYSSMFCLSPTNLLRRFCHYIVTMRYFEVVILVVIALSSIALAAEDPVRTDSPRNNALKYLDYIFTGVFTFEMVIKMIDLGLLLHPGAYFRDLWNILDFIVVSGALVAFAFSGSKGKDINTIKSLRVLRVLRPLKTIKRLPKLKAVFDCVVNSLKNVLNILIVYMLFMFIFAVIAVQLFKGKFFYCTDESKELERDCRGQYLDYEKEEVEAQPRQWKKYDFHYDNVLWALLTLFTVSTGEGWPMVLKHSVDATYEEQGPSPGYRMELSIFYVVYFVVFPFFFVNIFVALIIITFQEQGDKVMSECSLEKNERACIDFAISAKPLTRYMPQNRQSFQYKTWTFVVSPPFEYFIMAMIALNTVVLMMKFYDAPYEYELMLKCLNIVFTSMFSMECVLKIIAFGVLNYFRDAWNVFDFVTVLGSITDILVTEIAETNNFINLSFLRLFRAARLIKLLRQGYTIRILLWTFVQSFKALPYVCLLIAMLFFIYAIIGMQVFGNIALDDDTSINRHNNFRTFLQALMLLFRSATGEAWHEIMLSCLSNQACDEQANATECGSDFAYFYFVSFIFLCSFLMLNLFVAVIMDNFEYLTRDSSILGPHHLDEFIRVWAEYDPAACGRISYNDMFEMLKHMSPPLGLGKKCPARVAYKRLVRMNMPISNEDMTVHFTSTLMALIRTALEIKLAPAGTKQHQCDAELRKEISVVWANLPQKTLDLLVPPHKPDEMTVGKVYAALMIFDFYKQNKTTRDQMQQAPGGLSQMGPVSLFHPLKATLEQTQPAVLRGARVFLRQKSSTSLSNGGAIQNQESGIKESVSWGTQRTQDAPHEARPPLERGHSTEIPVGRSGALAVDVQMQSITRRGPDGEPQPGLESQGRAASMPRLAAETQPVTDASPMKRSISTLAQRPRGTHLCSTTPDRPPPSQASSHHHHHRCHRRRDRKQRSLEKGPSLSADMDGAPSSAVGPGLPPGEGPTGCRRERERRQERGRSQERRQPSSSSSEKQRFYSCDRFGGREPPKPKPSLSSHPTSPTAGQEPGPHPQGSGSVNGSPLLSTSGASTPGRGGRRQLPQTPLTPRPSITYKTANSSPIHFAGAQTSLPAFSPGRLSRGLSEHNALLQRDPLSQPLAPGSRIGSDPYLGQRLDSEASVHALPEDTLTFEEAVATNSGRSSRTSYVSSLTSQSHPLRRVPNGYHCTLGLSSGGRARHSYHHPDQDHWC
T4 sequence (Q02410 whole entry): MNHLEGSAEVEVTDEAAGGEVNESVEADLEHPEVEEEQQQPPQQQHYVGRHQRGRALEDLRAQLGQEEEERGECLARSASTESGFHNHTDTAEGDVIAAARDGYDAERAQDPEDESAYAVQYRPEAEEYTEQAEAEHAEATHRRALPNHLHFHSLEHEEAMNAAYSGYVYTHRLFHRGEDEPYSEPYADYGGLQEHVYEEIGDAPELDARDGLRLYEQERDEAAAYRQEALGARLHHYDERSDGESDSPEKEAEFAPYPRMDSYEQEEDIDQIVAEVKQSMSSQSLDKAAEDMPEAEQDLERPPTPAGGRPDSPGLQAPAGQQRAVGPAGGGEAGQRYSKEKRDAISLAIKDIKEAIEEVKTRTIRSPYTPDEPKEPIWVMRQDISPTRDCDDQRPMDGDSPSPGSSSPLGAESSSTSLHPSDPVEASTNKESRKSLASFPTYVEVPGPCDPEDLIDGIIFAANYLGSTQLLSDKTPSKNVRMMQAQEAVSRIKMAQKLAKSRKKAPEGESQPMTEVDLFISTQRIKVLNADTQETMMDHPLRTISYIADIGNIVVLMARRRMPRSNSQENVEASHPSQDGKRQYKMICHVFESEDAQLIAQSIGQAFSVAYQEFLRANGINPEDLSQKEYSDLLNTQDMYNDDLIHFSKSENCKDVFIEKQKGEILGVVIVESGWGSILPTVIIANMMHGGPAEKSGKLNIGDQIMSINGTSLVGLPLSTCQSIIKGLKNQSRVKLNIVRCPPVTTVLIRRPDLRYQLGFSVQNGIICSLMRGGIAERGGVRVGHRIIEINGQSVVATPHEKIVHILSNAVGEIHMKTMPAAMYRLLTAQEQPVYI
Luciferin 4-monooxygenase, sequence (P08659 whole entry): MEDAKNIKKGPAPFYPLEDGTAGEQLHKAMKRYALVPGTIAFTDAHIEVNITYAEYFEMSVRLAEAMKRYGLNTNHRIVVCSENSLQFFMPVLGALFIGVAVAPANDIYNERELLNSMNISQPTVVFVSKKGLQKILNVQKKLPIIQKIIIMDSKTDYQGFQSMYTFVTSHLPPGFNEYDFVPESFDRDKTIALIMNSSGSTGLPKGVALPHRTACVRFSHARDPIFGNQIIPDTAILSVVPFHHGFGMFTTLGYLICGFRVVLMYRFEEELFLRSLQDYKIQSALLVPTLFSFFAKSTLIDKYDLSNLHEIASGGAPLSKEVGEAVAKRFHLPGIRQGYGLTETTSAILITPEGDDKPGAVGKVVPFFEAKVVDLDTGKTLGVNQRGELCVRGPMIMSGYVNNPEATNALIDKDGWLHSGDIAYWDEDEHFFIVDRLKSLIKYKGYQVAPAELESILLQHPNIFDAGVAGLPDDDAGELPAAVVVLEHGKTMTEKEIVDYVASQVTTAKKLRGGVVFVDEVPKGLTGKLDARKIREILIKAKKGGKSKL
FAD-linked sulfhydryl oxidase ALR, sequence (P55789 whole entry): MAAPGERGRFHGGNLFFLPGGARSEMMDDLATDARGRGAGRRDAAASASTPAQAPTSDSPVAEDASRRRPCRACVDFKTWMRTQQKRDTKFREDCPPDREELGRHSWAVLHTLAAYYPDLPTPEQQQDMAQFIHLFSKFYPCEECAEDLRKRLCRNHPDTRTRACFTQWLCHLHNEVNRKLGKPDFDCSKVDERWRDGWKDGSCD

COC(=O)c1ccccc1NC(=O)CSc1nc(-c2ccco2)cc(C(F)(F)F)n1
IC50 [1]: > 80 µM (inactive)

O=[N+]([O-])c1ccc(-c2nc(C(Cl)Cl)c3ccccc3n2)cc1
EC50 [2]: 1.79 µM (active)
EC50 [3]: 0.407 µM (active)
EC50 [4]: 0.336 µM (active)
IC50 [1]: > 80 µM (inactive)
EC50 [5]: > 260 µM (inconclusive)
AC50 (INS1): 1.89 µM (active)

CCOc1ccc(C(=O)Nc2ccc(NC(=O)c3cc4ccccc4o3)cc2)cc1[N+](=O)[O-]
IC50 (HEK293 [6]): > 80 µM (inactive)
IC50 (Jurkat): 48.8 µM (inactive)
IC50 (HEK293 [7]): > 80 µM (inactive)

COc1ccc(C2SCCN2S(=O)(=O)c2ccccc2)cc1 (stereo not drawn)
AC50 (Escherichia coli): 95.3 µM (active)

Cc1ccc2c(c1)N(C)/C(=C/c1cccc[n+]1C)S2
EC50 (HEK293 [8]): 13.3 µM (active)
IC50 (HEK293 [9]): 10.6 µM (active)
IC50 (HEK293 [10]): > 20 µM (inactive)
IC50 (HEK293 [11]): 17 µM (inactive)
EC50 [12]: < 0.1 µM (active)
EC50 [13]: > 60 µM (not active)
AC50 [14]: 63.1 µM (active)
EC50 (cells): 0.015 µM (active)

Cc1cc(-c2nc3ncccc3o2)ccc1NC(=O)c1ccc([N+](=O)[O-])o1
IC50 (HEK293 [6]): 32 µM (inactive)
IC50 (Jurkat): 19.4 µM (active)
IC50 (HEK293 [7]): 30 µM (inactive)

CCOC(=O)Cc1csc(NC(=O)NC2(C(F)(F)F)Oc3ccc(Cl)cc3O2)n1 (stereo not drawn)
Absolute IC50 (CHOP) [15]: 10 µM
Absolute IC50 (XBP1) (X-box-binding protein 1): 10 µM
IC50 (H9c2): > 79 µM (inactive)

CCc1cc(C(=O)NC2CCCN(Cc3ccccc3F)C2)n(C)n1 (stereo not drawn)
EC50 (HEK293 [8]): 9.78 µM (active)
IC50 (HEK293 [9]): 16.5 µM (active)
IC50 (HEK293 [10]): > 20 µM (inactive)
IC50 (HEK293 [11]): > 20 µM (inactive)

O=c1c2cc(Br)ccc2[s+]([O-])n1-c1ccccc1 (stereo not drawn)
IC50 (Hexokinase): > 25 µM (inactive)

COc1ccc(C(=O)Nc2ccc(NC(=O)c3cc4ccccc4o3)cc2)cc1OC
IC50 (HEK293 [6]): > 80 µM (inactive)
IC50 (Jurkat): > 79 µM (inactive)
IC50 (HEK293 [7]): > 80 µM (inactive)

COC(=O)/C=C\C(=O)Nc1cccc([N+](=O)[O-])c1
IC50 [16]: 10.1 µM (active)
EC50 [17]: > 195 µM (not active)
EC50 [18]: > 112 µM (not active)
EC50 [19]: 9.34 µM (active)
IC50 [20]: 2.1 µM (active)
IC50 (Saccharomyces cerevisiae): 7.1 µM (active)
IC50 [21]: 10.9 µM (active)
Absolute IC50 (CHOP) [15]: 10 µM
AC50 [22]: 3.67 µM (active)

CC(C)(C)OC(=O)NCC(=O)N1CCC(C(=O)O)CC1
AC50 (Escherichia coli): 26.6 µM (active)

Source: ChEMBL document CHEMBL1201862, “PubChem BioAssay data set” (2004)
